Laboratory results: ChEMBL document CHEMBL4507311, “Data for DCP probe A-1155463” (2021)

Legend:
[1] = biological target: Serine/threonine-protein kinase Nek1 (Homo sapiens) (UniProt Q96PY6); settings: Compound concentration 1000.0 nM
[2] = biological target: Inhibitor of nuclear factor kappa-B kinase subunit beta (Homo sapiens) (UniProt O14920); settings: Compound concentration 1000.0 nM
[3] = test system: Tyrosine-protein kinase ABL1 (Homo sapiens), P00519 [Q252H]; settings: Compound concentration 1000.0 nM
[4] = test system: Tyrosine-protein kinase ABL1 (Homo sapiens), P00519 [H396P]; settings: Compound concentration 1000.0 nM
[5] = biological target: Serine/threonine-protein kinase N2 (Homo sapiens) (UniProt Q16513); settings: Compound concentration 1000.0 nM
[6] = biological target: Proto-oncogene tyrosine-protein kinase ROS (Homo sapiens) (UniProt P08922); settings: Compound concentration 1000.0 nM
[7] = biological target: Serine/threonine-protein kinase tousled-like 1 (Homo sapiens) (UniProt Q9UKI8); settings: Compound concentration 1000.0 nM
[8] = biological target: Serine/threonine-protein kinase PLK1 (Homo sapiens) (UniProt P53350); settings: Compound concentration 1000.0 nM
[9] = biological target: LIM domain kinase 2 (Homo sapiens) (UniProt P53671); settings: Compound concentration 1000.0 nM
[10] = biological target: RAC-beta serine/threonine-protein kinase (Homo sapiens) (UniProt P31751); settings: Compound concentration 1000.0 nM
[11] = test system: Epidermal growth factor receptor (Homo sapiens), P00533 [T790M]; settings: Compound concentration 1000.0 nM
[12] = biological target: TRAF2 and NCK-interacting protein kinase (Homo sapiens) (UniProt Q9UKE5); settings: Compound concentration 1000.0 nM
[13] = biological target: Serine/threonine-protein kinase 17A (Homo sapiens) (UniProt Q9UEE5); settings: Compound concentration 1000.0 nM
[14] = biological target: Dual specificity protein kinase CLK3 (Homo sapiens) (UniProt P49761); settings: Compound concentration 1000.0 nM
[15] = biological target: Tyrosine-protein kinase receptor TYRO3 (Homo sapiens) (UniProt Q06418); settings: Compound concentration 1000.0 nM
[16] = biological target: 3-phosphoinositide-dependent protein kinase 1 (Homo sapiens) (UniProt O15530); settings: Compound concentration 1000.0 nM
[17] = biological target: Serine/threonine-protein kinase WNK3 (Homo sapiens) (UniProt Q9BYP7); settings: Compound concentration 1000.0 nM
[18] = biological target: Tyrosine-protein kinase Blk (Homo sapiens) (UniProt P51451); settings: Compound concentration 1000.0 nM
[19] = biological target: Serine/threonine-protein kinase NIM1 (Homo sapiens) (UniProt Q8IY84); settings: Compound concentration 1000.0 nM
[20] = biological target: Tyrosine-protein kinase Fgr (Homo sapiens) (UniProt P09769); settings: Compound concentration 1000.0 nM
[21] = biological target: Tyrosine-protein kinase Lyn (Homo sapiens) (UniProt P07948); settings: Compound concentration 1000.0 nM
[22] = biological target: Dual specificity tyrosine-phosphorylation-regulated kinase 1B (Homo sapiens) (UniProt Q9Y463); settings: Compound concentration 1000.0 nM
[23] = biological target: Tyrosine-protein kinase HCK (Homo sapiens) (UniProt P08631); settings: Compound concentration 1000.0 nM
[24] = test system: Tyrosine-protein kinase ABL1 (Homo sapiens), P00519 [Y253F]; settings: Compound concentration 1000.0 nM
[25] = biological target: Dual specificity mitogen-activated protein kinase kinase 5 (Homo sapiens) (UniProt Q13163); settings: Compound concentration 1000.0 nM
[26] = biological target: Phosphorylase b kinase gamma catalytic chain, skeletal muscle/heart isoform (Homo sapiens) (UniProt Q16816); settings: Compound concentration 1000.0 nM
[27] = biological target: GABA-A receptor; anion channel (Rattus norvegicus) (UniProt O09028+P15431+P18506+P18508+P19969+P20236+P23574+P23576+P28471+P28473+P30191+P62813+P63079+P63138+Q91ZM7+Q9ES14); settings: Compound concentration 10.0 uM
[28] = biological target: Serine/threonine-protein kinase OSR1 (Homo sapiens) (UniProt O95747); settings: Compound concentration 1000.0 nM
[29] = biological target: Serine/threonine-protein kinase WNK2 (Homo sapiens) (UniProt Q9Y3S1); settings: Compound concentration 1000.0 nM
[30] = biological target: Serine/threonine-protein kinase 16 (Homo sapiens) (UniProt O75716); settings: Compound concentration 1000.0 nM
[31] = biological target: Protein kinase C iota type (Homo sapiens) (UniProt P41743); settings: Compound concentration 1000.0 nM
[32] = test system: Phosphatidylinositol 4,5-bisphosphate 3-kinase catalytic subunit alpha isoform (Homo sapiens), P42336 [E542K]; settings: Compound concentration 1000.0 nM
[33] = biological target: MAP kinase-interacting serine/threonine-protein kinase 2 (Homo sapiens) (UniProt Q9HBH9); settings: Compound concentration 1000.0 nM
[34] = biological target: cAMP-dependent protein kinase catalytic subunit alpha (Homo sapiens) (UniProt P17612); settings: Compound concentration 1000.0 nM
[35] = biological target: Ephrin type-B receptor 6 (Homo sapiens) (UniProt O15197); settings: Compound concentration 1000.0 nM
[36] = biological target: Protein kinase C delta type (Homo sapiens) (UniProt Q05655); settings: Compound concentration 1000.0 nM
[37] = biological target: Inhibitor of nuclear factor kappa-B kinase subunit alpha (Homo sapiens) (UniProt O15111); settings: Compound concentration 1000.0 nM
[38] = biological target: Calcium/calmodulin-dependent protein kinase type 1B (Homo sapiens) (UniProt Q6P2M8); settings: Compound concentration 1000.0 nM
[39] = biological target: Maternal embryonic leucine zipper kinase (Homo sapiens) (UniProt Q14680); settings: Compound concentration 1000.0 nM
[40] = biological target: Serine/threonine-protein kinase Sgk2 (Homo sapiens) (UniProt Q9HBY8); settings: Compound concentration 1000.0 nM
[41] = biological target: SRSF protein kinase 1 (Homo sapiens) (UniProt Q96SB4); settings: Compound concentration 1000.0 nM
[42] = test system: Receptor-type tyrosine-protein kinase FLT3 (Homo sapiens), P36888 [K663Q]; settings: Compound concentration 1000.0 nM
[43] = biological target: Receptor tyrosine-protein kinase erbB-3 (Homo sapiens) (UniProt P21860); settings: Compound concentration 1000.0 nM

Sequence of MAP kinase-interacting serine/threonine-protein kinase 2 (Homo sapiens) (Q9HBH9 whole entry, looked up): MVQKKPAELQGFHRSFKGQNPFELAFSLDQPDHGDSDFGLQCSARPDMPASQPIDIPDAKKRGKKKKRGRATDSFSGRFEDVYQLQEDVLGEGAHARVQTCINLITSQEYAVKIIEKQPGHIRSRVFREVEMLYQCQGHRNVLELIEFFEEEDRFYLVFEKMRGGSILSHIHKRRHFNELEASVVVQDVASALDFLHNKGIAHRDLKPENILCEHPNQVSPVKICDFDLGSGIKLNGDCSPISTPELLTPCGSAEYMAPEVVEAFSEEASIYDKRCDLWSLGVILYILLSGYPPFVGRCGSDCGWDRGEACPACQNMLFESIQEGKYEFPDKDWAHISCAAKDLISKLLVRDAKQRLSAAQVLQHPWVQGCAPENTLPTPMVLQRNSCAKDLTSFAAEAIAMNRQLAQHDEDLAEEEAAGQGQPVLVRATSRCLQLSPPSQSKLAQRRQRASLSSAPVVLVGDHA
Sequence of Inhibitor of nuclear factor kappa-B kinase subunit beta (Homo sapiens) (O14920 whole entry): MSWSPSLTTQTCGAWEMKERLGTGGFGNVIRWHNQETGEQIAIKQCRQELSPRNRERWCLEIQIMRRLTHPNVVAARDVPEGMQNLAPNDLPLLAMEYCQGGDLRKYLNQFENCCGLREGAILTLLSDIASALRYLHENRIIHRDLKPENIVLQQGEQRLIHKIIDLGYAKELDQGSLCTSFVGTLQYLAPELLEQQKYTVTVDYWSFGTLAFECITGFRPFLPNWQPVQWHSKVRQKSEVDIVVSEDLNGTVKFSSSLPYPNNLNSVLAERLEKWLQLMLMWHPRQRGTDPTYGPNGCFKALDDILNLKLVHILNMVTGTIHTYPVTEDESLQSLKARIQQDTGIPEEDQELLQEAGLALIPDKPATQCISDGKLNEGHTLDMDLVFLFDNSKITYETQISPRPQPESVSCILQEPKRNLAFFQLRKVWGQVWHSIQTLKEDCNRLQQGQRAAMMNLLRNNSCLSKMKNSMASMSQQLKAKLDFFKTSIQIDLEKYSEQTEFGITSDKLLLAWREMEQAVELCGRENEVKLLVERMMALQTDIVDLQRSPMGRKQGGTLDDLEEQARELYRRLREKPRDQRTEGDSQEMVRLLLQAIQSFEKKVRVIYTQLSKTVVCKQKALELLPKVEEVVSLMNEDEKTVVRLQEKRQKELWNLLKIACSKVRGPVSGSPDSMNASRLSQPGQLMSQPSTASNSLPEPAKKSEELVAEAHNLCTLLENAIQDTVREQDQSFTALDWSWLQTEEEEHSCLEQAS
Sequence of Protein kinase C delta type (Homo sapiens) (Q05655 whole entry, looked up): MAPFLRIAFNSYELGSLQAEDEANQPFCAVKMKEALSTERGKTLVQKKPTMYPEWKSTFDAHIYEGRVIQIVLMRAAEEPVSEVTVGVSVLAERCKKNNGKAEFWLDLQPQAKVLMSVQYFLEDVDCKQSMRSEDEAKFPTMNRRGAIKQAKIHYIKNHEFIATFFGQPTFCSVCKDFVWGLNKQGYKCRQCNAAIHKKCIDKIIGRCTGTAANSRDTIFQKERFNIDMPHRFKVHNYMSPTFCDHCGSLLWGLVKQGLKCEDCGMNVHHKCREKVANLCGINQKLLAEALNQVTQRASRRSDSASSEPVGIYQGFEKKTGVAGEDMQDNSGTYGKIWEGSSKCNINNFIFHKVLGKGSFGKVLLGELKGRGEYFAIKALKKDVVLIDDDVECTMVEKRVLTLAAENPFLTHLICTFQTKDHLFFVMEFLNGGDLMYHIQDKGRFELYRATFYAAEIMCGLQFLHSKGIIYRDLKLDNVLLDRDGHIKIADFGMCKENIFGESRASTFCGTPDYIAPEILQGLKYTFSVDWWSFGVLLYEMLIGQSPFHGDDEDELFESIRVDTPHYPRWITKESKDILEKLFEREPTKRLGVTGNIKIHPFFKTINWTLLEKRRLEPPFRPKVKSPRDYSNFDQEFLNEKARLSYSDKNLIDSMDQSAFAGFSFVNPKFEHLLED
Sequence of Serine/threonine-protein kinase PLK1 (Homo sapiens) (P53350 whole entry, the tested form may be a part): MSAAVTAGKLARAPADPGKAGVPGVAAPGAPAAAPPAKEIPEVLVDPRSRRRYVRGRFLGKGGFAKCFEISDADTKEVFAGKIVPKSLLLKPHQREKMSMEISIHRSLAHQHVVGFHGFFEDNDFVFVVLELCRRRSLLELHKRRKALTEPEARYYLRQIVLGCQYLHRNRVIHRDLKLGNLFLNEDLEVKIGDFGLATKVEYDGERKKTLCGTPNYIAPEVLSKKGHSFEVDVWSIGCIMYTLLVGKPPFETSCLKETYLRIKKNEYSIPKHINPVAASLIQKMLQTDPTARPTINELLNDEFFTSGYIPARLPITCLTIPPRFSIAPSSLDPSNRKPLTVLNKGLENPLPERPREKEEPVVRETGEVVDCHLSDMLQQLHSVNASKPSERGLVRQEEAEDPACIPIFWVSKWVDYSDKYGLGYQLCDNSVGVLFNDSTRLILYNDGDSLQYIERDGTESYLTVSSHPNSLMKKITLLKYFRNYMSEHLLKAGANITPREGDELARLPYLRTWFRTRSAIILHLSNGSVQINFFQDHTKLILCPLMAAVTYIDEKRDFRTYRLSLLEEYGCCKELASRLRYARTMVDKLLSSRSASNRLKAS
Sequence of Ephrin type-B receptor 6 (Homo sapiens) (O15197 whole entry): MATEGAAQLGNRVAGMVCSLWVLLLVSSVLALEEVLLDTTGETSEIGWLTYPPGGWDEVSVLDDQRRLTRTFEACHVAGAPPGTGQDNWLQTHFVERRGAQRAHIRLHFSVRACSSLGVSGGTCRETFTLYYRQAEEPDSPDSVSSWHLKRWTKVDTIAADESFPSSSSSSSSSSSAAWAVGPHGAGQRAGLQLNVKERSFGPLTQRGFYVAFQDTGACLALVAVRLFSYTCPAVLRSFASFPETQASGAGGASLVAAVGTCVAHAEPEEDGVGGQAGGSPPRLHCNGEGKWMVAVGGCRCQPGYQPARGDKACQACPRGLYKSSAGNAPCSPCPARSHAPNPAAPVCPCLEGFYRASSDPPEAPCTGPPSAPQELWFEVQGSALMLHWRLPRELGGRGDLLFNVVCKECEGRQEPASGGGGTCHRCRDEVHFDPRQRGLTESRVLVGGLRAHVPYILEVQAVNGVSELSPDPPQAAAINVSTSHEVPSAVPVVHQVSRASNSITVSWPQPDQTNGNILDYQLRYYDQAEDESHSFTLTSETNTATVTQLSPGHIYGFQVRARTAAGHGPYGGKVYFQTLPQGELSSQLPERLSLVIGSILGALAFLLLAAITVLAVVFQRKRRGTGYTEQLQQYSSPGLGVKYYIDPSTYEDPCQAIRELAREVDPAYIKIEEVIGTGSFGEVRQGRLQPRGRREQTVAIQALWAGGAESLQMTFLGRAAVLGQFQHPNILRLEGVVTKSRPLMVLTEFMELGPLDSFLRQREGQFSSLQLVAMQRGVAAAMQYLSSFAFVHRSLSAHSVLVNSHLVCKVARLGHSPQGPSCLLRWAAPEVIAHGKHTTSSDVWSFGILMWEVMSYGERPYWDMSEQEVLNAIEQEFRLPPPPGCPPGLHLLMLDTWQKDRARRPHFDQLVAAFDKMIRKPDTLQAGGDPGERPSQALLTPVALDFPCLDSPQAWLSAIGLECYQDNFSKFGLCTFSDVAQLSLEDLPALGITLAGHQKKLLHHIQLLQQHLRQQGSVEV
Sequence of 3-phosphoinositide-dependent protein kinase 1 (Homo sapiens) (O15530 whole entry): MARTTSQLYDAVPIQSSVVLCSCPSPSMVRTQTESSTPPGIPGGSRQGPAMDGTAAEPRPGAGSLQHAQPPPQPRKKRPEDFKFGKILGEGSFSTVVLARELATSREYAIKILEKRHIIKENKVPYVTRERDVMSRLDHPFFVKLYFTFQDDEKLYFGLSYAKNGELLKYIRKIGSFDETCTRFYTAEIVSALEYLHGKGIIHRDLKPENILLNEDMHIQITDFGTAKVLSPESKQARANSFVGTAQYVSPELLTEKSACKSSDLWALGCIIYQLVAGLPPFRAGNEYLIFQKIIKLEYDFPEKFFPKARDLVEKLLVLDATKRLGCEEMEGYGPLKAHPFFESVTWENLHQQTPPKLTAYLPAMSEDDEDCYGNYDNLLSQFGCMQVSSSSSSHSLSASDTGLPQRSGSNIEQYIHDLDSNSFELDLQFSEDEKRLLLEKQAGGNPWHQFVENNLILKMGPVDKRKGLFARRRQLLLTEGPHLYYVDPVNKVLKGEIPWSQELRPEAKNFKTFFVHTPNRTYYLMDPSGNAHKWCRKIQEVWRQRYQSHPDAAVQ
Sequence of Tyrosine-protein kinase HCK (Homo sapiens) (P08631 2-526 limits assumed): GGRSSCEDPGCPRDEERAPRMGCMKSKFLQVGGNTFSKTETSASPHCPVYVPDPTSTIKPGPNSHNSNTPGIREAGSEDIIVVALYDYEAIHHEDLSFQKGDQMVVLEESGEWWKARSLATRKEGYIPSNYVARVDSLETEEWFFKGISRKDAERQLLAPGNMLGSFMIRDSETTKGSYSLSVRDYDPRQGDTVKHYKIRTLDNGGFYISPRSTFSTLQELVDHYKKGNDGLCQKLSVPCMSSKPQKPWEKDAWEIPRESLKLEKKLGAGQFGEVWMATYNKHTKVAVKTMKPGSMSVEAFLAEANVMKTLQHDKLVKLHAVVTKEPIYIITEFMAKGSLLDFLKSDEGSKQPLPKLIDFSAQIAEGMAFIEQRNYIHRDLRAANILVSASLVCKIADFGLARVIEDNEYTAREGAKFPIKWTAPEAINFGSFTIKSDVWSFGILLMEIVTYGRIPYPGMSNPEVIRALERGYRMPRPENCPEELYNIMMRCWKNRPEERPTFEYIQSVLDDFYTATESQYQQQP
Sequence of Calcium/calmodulin-dependent protein kinase type 1B (Homo sapiens) (Q6P2M8 whole entry): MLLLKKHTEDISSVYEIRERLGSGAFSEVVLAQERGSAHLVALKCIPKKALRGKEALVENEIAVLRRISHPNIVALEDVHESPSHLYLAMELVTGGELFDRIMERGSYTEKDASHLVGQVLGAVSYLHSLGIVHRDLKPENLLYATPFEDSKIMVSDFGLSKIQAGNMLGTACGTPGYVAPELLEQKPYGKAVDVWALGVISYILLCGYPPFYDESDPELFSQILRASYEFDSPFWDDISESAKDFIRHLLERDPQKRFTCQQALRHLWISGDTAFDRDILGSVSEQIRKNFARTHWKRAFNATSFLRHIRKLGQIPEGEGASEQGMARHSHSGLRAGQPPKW

CN(C)CC#Cc1ccc(OCCCc2sc(N3CCc4cccc(C(=O)Nc5nc6ccccc6s5)c4C3)nc2C(=O)O)c(F)c1 [A-1155463]
inactive: residual activity [1] 100% | residual activity [2] 72% | residual activity [3] 94% | residual activity [4] 99% | residual activity [5] 100% | residual activity [6] 93% | residual activity [7] 86% | residual activity [8] 100% | residual activity [9] 96% | residual activity [10] 100% | residual activity [11] 100% | residual activity [12] 83% | residual activity [13] 85% | residual activity [14] 86% | residual activity [15] 94% | residual activity [16] 100% | residual activity [17] 100% | residual activity [18] 92% | residual activity [19] 100% | residual activity [20] 100% | residual activity [21] 100% | residual activity [22] 87% | residual activity [23] 100% | residual activity [24] 93% | residual activity [25] 100% | residual activity [26] 98% | inhibition [27] 36.8% | residual activity [28] 86% | residual activity [29] 96% | residual activity [30] 92% | residual activity [31] 100% | residual activity [32] 72% | residual activity [33] 75% | residual activity [34] 89% | residual activity [35] 100% | residual activity [36] 100% | residual activity [37] 81% | residual activity [38] 100% | residual activity [39] 78% | residual activity [40] 100% | residual activity [41] 100% | residual activity [42] 100% | residual activity [43] 100%
